Assay results from patent publication US20110282078A1, “CYCLOHEXENE 1,4 -CARBOXYLATES” (Draths Corporation, priority 2009, published 2011).
Values after ≈ are worked out from the molar mass of the structure shown.

assay: approximate solubility at room temperature in ethyl acetate; format: physicochemical; details: organic solvent or mixture
Procedure: A stirred suspension of dried (less than 5 weight percent of water), crude cis,cis or cis,trans muconic acid (200 g) in tetrahydrofuran (THF) (1.8 liter (l)) is heated to 50° C., Within 45 minutes at 50° C. most of the solid dissolves. Activated charcoal (35 g) is added. After 1 hour, the hot suspension is clarified by filtration through a bed of Celite™ diatomaceous earth. The filtrate is evaporated to dryness and the residue is dried under high vacuum to yield pure cis,cis or cis,trans muconic acid (166 g, 83 percent mass recovery). In the case of cis,cis muconic acid, any traces of cis,trans muconic acid can be removed by resuspending the solid twice in refluxing ethyl acetate, which is removed each time by decantation from the cooled solution. The approximate solubilities at room temperature in ethyl acetate are 1 mg/ml for cis,cis muconic acid, 5 mg/ml for cis,trans muconic acid, and 0.1 mg/ml for trans,trans muconic acid.

First: O=C(O)/C=C\C=C\C(=O)O [cis,trans muconic acid]
Second: O=C(O)/C=C\C=C/C(=O)O [cis,cis muconic acid]
The solubility of the first is 5-fold higher: ~5000 µg/mL (≈ 35.2 mM) for the first, ~1000 µg/mL (≈ 7.04 mM) for the second.

With `O=C(O)/C=C/C=C/C(=O)O` [trans,trans muconic acid] the solubility was ~100 µg/mL (≈ 0.704 mM).
